Results reported in paper PMC8757608 (Journal of Enzyme Inhibition and Medicinal Chemistry, 2022).
Where two headings read alike, the source gives them in different places.

Legend:
[1] = test system: full NCI 60-cell panel; assay: NCI-60 single dose screen, statements over several cell lines; format: cell-based, human; conditions: for inhibition at 10 µM: Homo sapiens
[2] = test system: DU-145 cell lines; assay: DNA-flow cytometry cell cycle analysis, DU-145; format: cell-based, human; conditions: DU-145, 24 h at IC50
[3] = test system: MCF-7 cells; assay: Annexin V-FITC apoptosis assay, MCF-7; format: cell-based, human; conditions: MCF-7 cells exposed to IC50, 24 h; for percentage of annexin V-FITC positive apoptotic cells (UR + LR): vehicle control 2.0%
[4] = test system: NCI-H522 (non-small cell lung cancer); assay: NCI-60 single dose screen, NCI-H522; format: cell-based; conditions: Homo sapiens, NCI-H522, read-out: inhibitory activity (cell growth inhibition)
[5] = test system: MCF7 cell lines; assay: DNA-flow cytometry cell cycle analysis, MCF7; format: cell-based, human; conditions: MCF7, 24 h at IC50
[6] = test system: DU-145 cells; assay: Annexin V-FITC apoptosis assay, DU-145; format: cell-based, human; conditions: DU-145 cells exposed to IC50, 24 h; for percent of annexin V-FITC positive apoptotic cells (UR + LR): vehicle control 1.7%
[7] = test system: MCF-7 breast cancer cell line; assay: MTT assay for cell viability, MCF7; format: cell-based; conditions: Homo sapiens, MCF7, read-out: Cytotoxicity IC50 (µM ± SE) MCF7, MTT assay, MCF7
[8] = test system: SR (leukemia); assay: NCI-60 single dose screen, SR; format: cell-based; conditions: Homo sapiens, read-out: percent growth inhibition
[9] = test system: DU-145 (prostate cancer); assay: NCI-60 single dose screen, DU-145; format: cell-based; conditions: Homo sapiens, DU-145, read-out: percent growth inhibition
[10] = test system: LOX IMVI (melanoma); assay: NCI-60 single dose screen, LOX IMVI; format: cell-based; conditions: Homo sapiens, read-out: percent growth inhibition
[11] = test system: MCF7 (breast cancer); assay: NCI-60 single dose screen, MCF7; format: cell-based; conditions: Homo sapiens, MCF7, read-out: percent growth inhibition
[12] = test system: IGROV1 (ovarian cancer); assay: NCI-60 single dose screen, IGROV1; format: cell-based; conditions: Homo sapiens, IGROV-1, read-out: percent growth inhibition
[13] = 60 cell, read-out: cell growth inhibition

CCCC(CCC)C(=O)OCc1cn(-c2c3ccccc3nc3ccccc23)nn1 [Compound 12, 1-(1-(Acridin-9-yl)-1H-1,2,3-triazol-4-yl)methyl valproate]
cell growth inhibition (in words) ([1]; against all cancer cell lines, single dose of 10 μM): either low or complete absence of cell growth inhibition

O=C1NC(c2ccccc2)(c2ccccc2)C(=O)N1Cc1cn(-c2c3ccccc3nc3ccccc23)nn1 [Compound 10, 3-((1-(Acridin-9-yl)-1H-1,2,3-triazol-4-yl)methyl)-5,5-diphenylimidazolidine-2,4-dione]
%G1 [2]: 42.9%
%G2/M [2]: 20.9%
increase of annexin V-FITC positive apoptotic cells compared with vehicle control [3]: 5.3 fold
percentage of annexin V-FITC positive apoptotic cells (UR + LR) [3]: 10.7%
inhibition at 10 µM [4]: 84.1%
inhibition at 10 µM [1, 13]: 61 to 97%
inhibition at 10 µM ([1]; read-out: cell growth inhibition percent): 60.8 to 68.6%
%G1 [5]: 43.5%
%G2/M [5]: 15.3%
%Pre-G1 [5]: 13.2%
rise of annexin V-FITC positive apoptotic cells compared with vehicle control [6]: 2 fold
percent of annexin V-FITC positive apoptotic cells (UR + LR) [6]: 3.6%

O=c1ccn(Cc2cn(-c3c4ccccc4nc4ccccc34)nn2)c(=O)[nH]1 [Compound 9, 1-((1-(Acridin-9-yl)-1H-1,2,3-triazol-4-yl)methyl)pyrimidine-2,4(1H,3H)–dione]
%G1 [2]: 41.5%
%G2/M [2]: 29.1%
increase of annexin V-FITC positive apoptotic cells compared with vehicle control [3]: 6.4 fold
percentage of annexin V-FITC positive apoptotic cells (UR + LR) [3]: 13%
inhibition at 10 µM [1, 13]: 61 to 97%
inhibition at 10 µM ([1]; read-out: cell growth inhibition): 61.3 to 67%
%G2/M [5]: 39.8%

COc1cccc2c1C(=O)c1c(O)c3c(c(O)c1C2=O)C[C@@](O)(C(=O)CO)C[C@@H]3O[C@H]1C[C@H](N)[C@H](O)[C@H](C)O1 [Doxorubicin]
IC50 [7]: 2 µM

Cc1cc(=O)[nH]c(=O)n1Cc1cn(-c2c3ccccc3nc3ccccc23)nn1 [Compound 8, 1-((1-(Acridin-9-yl)-1H-1,2,3-triazol-4-yl)methyl)-6-methylpyrimidine-2,4(1H,3H)-dione]
%G1 [2]: 34.6%
%G2/M [2]: 39.6%
%Pre-G1 [2]: 12.9%
inhibition at 10 µM [8]: 88.6%
increase of annexin V-FITC positive apoptotic cells compared with vehicle control [3]: 10 fold
percentage of annexin V-FITC positive apoptotic cells (UR + LR) [3]: 20.3%
inhibition at 10 µM [9]: 84.3%
inhibition at 10 µM [10]: 84.8%
inhibition at 10 µM [1, 13]: 61 to 97%
inhibition at 10 µM [11]: 97.5%
%G1 [5]: 24.4%
%G2/M [5]: 48.3%
%Pre-G1 [5]: 24.4%
rise of annexin V-FITC positive apoptotic cells compared with vehicle control [6]: sixfold
percent of annexin V-FITC positive apoptotic cells (UR + LR) [6]: 10.2%
inhibition at 10 µM [12]: 67%
